Results as given in patent publication US20250387359A1, “COMPOUNDS AND METHODS FOR THE TREATMENT OF PARASITIC INFECTIONS” (THE BOARD OF TRUSTEES OF THE UNIVERSITY OF ILLINOIS, priority 2019, published 2025).
Like-named read-outs stand apart in the source and are kept apart here.

Key:
C. parvum [1] = assay: Real-time PCR quantification of C. parvum DNA in fecal samples of infected mice; format: in vivo, Cryptosporidium parvum; details: paromomycin 100 mg/kg; for fecal C. parvum DNA load: Table 6, infected mice, multiplier printed in next cell
Method: In vivo testing of the anti-Cryptosporidium effect of CpLDH inhibitors. Gamma interferon knockout mice (B6.129S7-Ifng), 8 weeks of age, were purchased from Charles River, USA. The care and use of the mice was done following the guidelines of protocol number 17024 approved by the University of Illinois at Urbana-Champaign, USA. The animals were allowed to acclimatize for 1 week before experiments commenced. Stock solutions of recombinant CpLDH inhibitors reconstituted in DMSO were diluted in sterile distilled water to reduce the final amount of DMSO in the solution to less than 1% (v/v) before administering them to mice. Prior to testing the anti-Cryptosporidium effect of the inhibitors in mice, the tolerability of each inhibitor was tested by oral gavage using varying dosages (100-2000 mg/kg body weight) of each inhibitor in groups of mice (three mice for each dose) daily for 7 days. Mice were observed daily for signs of toxicity including changes from normal physical activity, respiration, body temperature, feeding, posture, fur condition or occurrence of death. […] The subsequent dosages of NSC10447 used in the mice infection assays were 250, 500 and 1000 mg/kg mouse body weight, while the NSC158011 dosages used were 100, 200 and 400 mg/kg mouse body weight. Mice were allocated to groups as follows: “Infected plus inhibitor treatment”; “Infected minus inhibitor treatment”; “Uninfected minus inhibitor treatment” and “Infected plus paromomycin treatment”. Each group contained at least three mice. Each mouse in the infection groups received 5,000 C. parvum oocysts (resuspended in 50 μl of PBS) by oral gavage. Mice were housed individually in cages lined with sterile gauze as bedding. One day post-infection (PI), daily oral gavage administration of recombinant CpLDH inhibitor or paromomycin commenced and continued for a total of 7 days. Untreated mice received an equivalent volume of sterile distilled water (containing DMSO equivalent to the amount administered in the inhibitor-treated group) by oral gavage. Fecal pellets were collected daily from each cage and placed in individual sterile 15 ml conical tubes. An equivalent volume of PBS containing a cocktail of penicillin (100 units/ml), streptomycin (100 μg/ml), chloramphenicol (34 μg/ml) and amphotericin (0.25 μg/ml) was added to the fecal samples and stored at 4° C. until use for quantification of C. parvum genomic DNA load. Three independent replicate infection assays were performed. At 9 days PI, mice were euthanized and 5 cm of the distal small intestine resected 2 cm anterior to the cecum and immediately submerged in 4% buffered formalin. The intestinal tissues were submitted for histopathology to the Veterinary Diagnostic Laboratory at the University of Illinois at Urbana-Champaign. Briefly, intestinal tissues preserved in 4% buffered formalin were washed in 70% ethanol and embedded in 1% agar and then processed for paraffin embedding. For hematoxylin and eosin staining, five μm transverse and cross sections were cut and processed and stained following standard procedures of the Veterinary Diagnostic Laboratory. Sections were imaged using a Zeiss microscope and images captured with a color camera.
Quantification of C. parvum shed in mice feces. Genomic DNA was extracted from individual fecal samples collected from mice at different days as described above. For each sample, 220 mg of homogenized feces were used to extract genomic DNA using the QIAamp PowerFecal DNA Kit (Qiagen, USA) following the manufacturer's instructions. Quantification of the amount of C. parvum 18s rRNA gene (GenBank accession number AF164102) was performed essentially as described previously (Int. J. Parasitol. 2018; 48(8), 649-656). Briefly, primers were used to generate a 240 bp amplicon from C. parvum genomic DNA by conventional PCR. […]

Cryptosporidium parvum [2] = details: previously reported by others; read-out: IC50, inhibition of C. parvum growth in HCT-8 cells; cited from earlier work
Cryptosporidium parvum [3] = assay: In vitro anti-Cryptosporidium effect in HCT-8 cells (immunofluorescence assay); format: cell-based; details: Cryptosporidium parvum, HCT-8 cells, positive control, read-out: IC50, inhibition of C. parvum growth
Method: In vitro testing of the anti-Cryptosporidium effect of CpLDH inhibitors. HCT-8 cells were cultured in supplemented RPMI-1640 medium in 96-well plates. When the cells were confluent, old medium was replaced with fresh medium. To one set of wells, varying concentrations of recombinant CpLDH inhibitors (reconstituted in DMSO and diluted in RPMI medium) were added, while another set was left without inhibitors. Paromomycin was used as a positive control drug reconstituted in distilled sterile water. Then, 4×10^4 freshly excysted sporozoites were added to each well and incubated at 37° C. with 5% CO2. After 2 h incubation, varying concentrations of CpLDH inhibitors were added to the set of infected cells that were not treated initially. Control infected cells without inhibitors, but with added DMSO volumes equivalent to those used in the wells with inhibitors, were included. The cells were maintained in culture for a total of either 48 h or 72 h and processed for immunofluorescence assay as previously described (Int. J. Parasitol. 2017; 47(13), 867-874). Briefly, medium was decanted, and the cells fixed with methanol-acetic acid (9:1) for 2 minutes at room temperature. The cells were rehydrated and permeabilized by two successive washes with buffer (0.1% Triton X-100, 0.35 M NaCl, 0.13 M Tris-base, pH 7.6) and blocked with 5% normal goat serum, followed by staining with antibody to C. parvum (SporoGlo; Waterborn, Inc.) overnight at 4° C. The stained cells were washed twice with PBS, followed by water, and then imaged with an inverted fluorescence microscope. Fluorescence quantification was done using ImageJ version 1.37v software (NIH). Assays were performed in triplicate and repeated at least thrice.

C. parvum [4] = assay: Histopathology of distal small intestine of C. parvum infected mice; format: in vivo, Cryptosporidium parvum; details: lower small intestine, H&E, NSC158011 400 mg/kg, NSC10447 250, 500 or 1000 mg/kg, paromomycin 100 mg/kg
Method: In vivo testing of the anti-Cryptosporidium effect of CpLDH inhibitors. Gamma interferon knockout mice (B6.129S7-Ifng), 8 weeks of age, were purchased from Charles River, USA. The care and use of the mice was done following the guidelines of protocol number 17024 approved by the University of Illinois at Urbana-Champaign, USA. The animals were allowed to acclimatize for 1 week before experiments commenced. Stock solutions of recombinant CpLDH inhibitors reconstituted in DMSO were diluted in sterile distilled water to reduce the final amount of DMSO in the solution to less than 1% (v/v) before administering them to mice. Prior to testing the anti-Cryptosporidium effect of the inhibitors in mice, the tolerability of each inhibitor was tested by oral gavage using varying dosages (100-2000 mg/kg body weight) of each inhibitor in groups of mice (three mice for each dose) daily for 7 days. Mice were observed daily for signs of toxicity including changes from normal physical activity, respiration, body temperature, feeding, posture, fur condition or occurrence of death. […] The subsequent dosages of NSC10447 used in the mice infection assays were 250, 500 and 1000 mg/kg mouse body weight, while the NSC158011 dosages used were 100, 200 and 400 mg/kg mouse body weight. Mice were allocated to groups as follows: “Infected plus inhibitor treatment”; “Infected minus inhibitor treatment”; “Uninfected minus inhibitor treatment” and “Infected plus paromomycin treatment”. Each group contained at least three mice. Each mouse in the infection groups received 5,000 C. parvum oocysts (resuspended in 50 μl of PBS) by oral gavage. Mice were housed individually in cages lined with sterile gauze as bedding. […] An equivalent volume of PBS containing a cocktail of penicillin (100 units/ml), streptomycin (100 μg/ml), chloramphenicol (34 μg/ml) and amphotericin (0.25 μg/ml) was added to the fecal samples and stored at 4° C. until use for quantification of C. parvum genomic DNA load. […]

[5] = target: T1, recombinant CpLDH protein (Cryptosporidium parvum, UniProt Q9GT92, F198L/K295E/R251K); details: previous studies; cited from earlier work
T1 sequence (Q9GT92 whole entry F198L/K295E/R251K): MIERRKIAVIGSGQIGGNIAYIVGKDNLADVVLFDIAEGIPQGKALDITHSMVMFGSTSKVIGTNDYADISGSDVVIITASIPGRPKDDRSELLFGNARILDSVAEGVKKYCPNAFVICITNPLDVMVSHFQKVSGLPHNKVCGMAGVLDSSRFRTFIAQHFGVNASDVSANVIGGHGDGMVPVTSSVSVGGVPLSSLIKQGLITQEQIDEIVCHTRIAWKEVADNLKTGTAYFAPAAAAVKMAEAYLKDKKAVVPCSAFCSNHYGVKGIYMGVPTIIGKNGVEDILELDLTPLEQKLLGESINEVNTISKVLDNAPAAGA

[6] = target: T1, recombinant CpLDH protein; details: reported by Zhang et al., PLoS Pathog. 2015; cited from earlier work
[7] = target: T1, recombinant CpLDH protein; assay: CpLDH enzyme kinetics on substrates and co-factors; format: biochemical
Method: Biochemical assays. The coding sequence of CpLDH was cloned from cDNA prepared from the AUCP-1 isolate of C. parvum, and the His-tagged CpLDH recombinant protein expressed in Escherichia coli, and purified in native form essentially as previously described (Int. J. Parasitol. 2017; 47(13), 867-874). Briefly, cDNA was prepared from total RNA extracted from the AUCP-1 isolate of C. parvum, and the coding sequencing of CpLDH (Genebank accession number AF274310.1) was PCR-amplified from the cDNA using a primer pair with a XhoI restriction site and a BamHI site. The PCR amplicon was cloned at the XhoI/BamHI site of the pET15b expression vector in-frame with the hexahistidine (His-tag) at the N-terminal and sequenced to confirm identity. The recombinant expression vector was transformed into protein expression E. coli BL21-CodonPlus-DE3-RIL (Stratagene). Transformed E. coli was cultured at 37° C. in Luria broth medium (supplemented with 100 μg/ml ampicillin and 34 μg/ml chloramphenicol) to an A600 of 0.8 followed by addition of 1 mM isopropyl-β-d-thiogalactopyranoside to induce protein expression. The expression E. coli was harvested and lysed under native conditions by sonicating in lysis buffer (50 mM NaH2PO4, 300 mM NaCl, 10 mM Imidazole, pH 8.0) containing a 1× EDTA-free protease inhibitor cocktail, 600 units benzonase and 30 kU lysozyme (EMD Millipore). The lysate was clarified by centrifugation and the His-tagged recombinant protein purified under native conditions by nickel-affinity chromatography according to the manufacturer's instructions (Novagen). The wash buffer used contained 50 mM NaH2PO4, 300 mM NaCl and 20 mM Imidazole, pH 8.0, while the elution buffer was composed of 50 mM NaH2PO4, 300 mM NaCl, 250 mM Imidazole, pH 8.0. The eluate was dialyzed using a buffer containing 5 mM Hepes-KOH (pH 7.8) and 0.5 mM DTT. The purity of the recombinant protein was determined by SDS/PAGE, and the concentration measured using a Qubit 3.0 fluorometer (Life technologies). […] On the other hand, the catalytic activity of CpLDH recombinant protein for the oxidation of lactate to pyruvate was determined by measuring the change in optical density of a 100 μl reaction mixture containing 100 mM lactate, 1 mM NAD^+, 100 mM Tris, pH 9.2, with varying concentrations of CpLDH recombinant protein at 25° C. […] In all assays, reaction mixtures without recombinant CpLDH protein were included as negative controls. All assays were performed in triplicate and repeated at least thrice. The change in optical density was measured every 15 seconds for a total of 2 minutes using a Spectra Max 384 Plus plate reader (Molecular Devices) at a wavelength of 340 nm.

[8] = pyruvate/NADH: reduction, lactate/NAD+: oxidation

Question: For `NC[C@@H]1O[C@H](O[C@H]2[C@@H](O)[C@H](O[C@@H]3[C@@H](O)[C@H](N)C[C@H](N)[C@H]3O[C@H]3O[C@H](CO)[C@@H](O)[C@H](O)[C@H]3N)O[C@@H]2CO)[C@H](N)[C@@H](O)[C@@H]1O` [paromomycin, reference compound], which “fecal C. parvum DNA load” value (C. parvum [1]; DPI 1) is on record?
Answer: Its value is 3.1 ± 0.2 ×10^−10 ng/μL.

Question: What about the “fecal C. parvum DNA load” value (C. parvum [1]; DPI 2) of the same compound?
Answer: The value was 6.6 ± 0.5 ×10^−9 ng/μL.

Question: And the “fecal C. parvum DNA load” value (C. parvum [1]; DPI 3)?
Answer: Its value is 5.2 ± 0.3 ×10^−9 ng/μL.

Question: What about the “fecal C. parvum DNA load” value (C. parvum [1]; DPI 4) of the same compound?
Answer: Its value is 4.7 ± 0.2 ×10^−8 ng/μL.

Question: And the “fecal C. parvum DNA load” value (C. parvum [1]; DPI 5)?
Answer: The value was 5.0 ± 0.6 ×10^−7 ng/μL.

Question: And the “fecal C. parvum DNA load” value (C. parvum [1]; DPI 6)?
Answer: The value was 4.8 ± 0.1 ×10^−6 ng/μL.

Question: What about the “fecal C. parvum DNA load” value (C. parvum [1]; DPI 7) of the same compound?
Answer: Its value is 5.1 ± 0.8 ×10^−6 ng/μL.

Question: What about the “fecal C. parvum DNA load” value (C. parvum [1]; DPI 8) of the same compound?
Answer: Its value is 5.4 ± 0.1 ×10^−6 ng/μL.

Question: What about the “reduction of shedding of C. parvum in mice feces vs untreated infected mice” value (C. parvum [1]; day 7 post-infection) of the same compound?
Answer: Its value is “about 3000 fold”.

Question: And the IC50 (Cryptosporidium parvum [2])?
Answer: The IC50 was 711 µM.

Question: And the IC50 (Cryptosporidium parvum [3]; 48 h post-infection)?
Answer: The IC50 was 450 µM.

Question: What about the IC50 (Cryptosporidium parvum [3]; 72 h post-infection) of the same compound?
Answer: The IC50 was 400 µM.

Question: And the “histopathology of intestinal epithelium and villi” value (C. parvum [4])?
Answer: Its value is “intact intestinal epithelium with prominent villi”.

Question: For `CCCc1c(O)c(O)c(C(=O)O)c2cc(Cc3ccccc3)c(C)cc12` [FX11], which “inhibition of the enzymatic activity of CpLDH” value [5] is on record?
Answer: Its value is “able to inhibit the enzymatic activity of CpLDH”.

Question: Which results are given for `CC(O)C(=O)O` (centres unmarked) [Lactate, lactate]?
Answer: Kcat [6]: (0.66)* s^−1; Km [6]: 10.8 mM; Vmax [6]: (0.53)* nmol^−1 · μg^−1 · min^−1; Km ([7]; pyruvate/NADH: reduction of pyruvate to lactate, lactate/NAD+: oxidation of lactate to pyruvate, 25° C., read-out: Km): 39.6 mM; Kcat [7, 8]: 0.07 s⁻¹; Vmax [7, 8]: 0.04 nmol⁻¹ µg⁻¹ min⁻¹
